Calls of active or inactive are those of the source. The rule behind the calls is not given here.
Key:
[1] = biological target: T1, Acetylcholinesterase (Homo sapiens, UniProt P22303); assay: Reversible binding affinity to human AChE using acetylthiocholine iodide as substrate assessed as equilibrium binding constant preincubated for 40 mins by DTNB reagent based Ellman's method
[2] = biological target: Cholinesterase (Equus caballus) (UniProt P81908); assay: Reversible binding affinity to equine serum BChE using acetylthiocholine iodide as substrate assessed as equilibrium binding constant preincubated for 40 mins by DTNB reagent based Ellman's method
Chain of Cholinesterase (Equus caballus) (P81908 whole entry): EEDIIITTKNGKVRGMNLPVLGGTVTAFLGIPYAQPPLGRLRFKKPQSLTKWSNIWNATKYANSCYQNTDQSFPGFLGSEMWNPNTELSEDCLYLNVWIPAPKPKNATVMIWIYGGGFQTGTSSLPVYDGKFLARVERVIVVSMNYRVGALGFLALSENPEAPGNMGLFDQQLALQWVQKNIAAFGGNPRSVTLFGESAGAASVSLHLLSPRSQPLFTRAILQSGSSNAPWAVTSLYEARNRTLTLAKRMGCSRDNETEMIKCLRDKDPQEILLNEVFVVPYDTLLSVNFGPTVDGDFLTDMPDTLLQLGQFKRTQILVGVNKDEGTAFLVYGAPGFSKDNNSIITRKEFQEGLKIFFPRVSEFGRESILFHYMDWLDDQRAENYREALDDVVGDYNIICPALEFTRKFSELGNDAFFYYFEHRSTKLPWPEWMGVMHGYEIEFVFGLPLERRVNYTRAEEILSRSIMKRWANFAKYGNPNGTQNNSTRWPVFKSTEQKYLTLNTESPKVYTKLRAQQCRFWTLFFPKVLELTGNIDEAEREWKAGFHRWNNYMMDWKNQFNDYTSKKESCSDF

[3] = biological target: Cholinesterase (Equus caballus) (UniProt P81908); assay: Reversible binding affinity to equine serum BChE using acetylthiocholine iodide as substrate assessed as binding constant preincubated for 40 mins by DTNB reagent based Ellman's method
[4] = biological target: T1, Acetylcholinesterase; assay: Displacement of propidium iodide from human AChE PAS assessed as reduction in fluorescence intensity at 0.1 uM incubated for 6 hrs by fluorescence based analysis relative to control; set-up: scale not given: the % may be the effect or the level left
[5] = Antioxidant activity assessed as DPPH radical scavenging activity at 200 uM incubated for 30 mins relative to control; assay type: functional
[6] = test system: PC-12; assay: Cytotoxicity against rat PC-12 cells assessed as cell viability upto 20 uM measured for 24 hrs by MTT assay; assay type: toxicity, cell-based; conditions: pc-12, 24 h
[7] = test system: PC-12; assay: Induction of apoptosis in rat PC-12 cells assessed as viable cells at 10 uM incubated for 24 hrs by Annexin V/PI staining based flow cytometry analysis (reference value: 82.8%); assay type: functional; conditions: read-out: Activity
[8] = test system: PC-12; assay: Induction of apoptosis in rat PC-12 cells assessed as viable cells at 5 uM incubated for 24 hrs by Annexin V/PI staining based flow cytometry analysis (reference value: 82.8%); assay type: functional; conditions: read-out: Activity
[9] = Metal chelating activity assessed as compound-Cu2+ complex formation by measuring increase in absorption intensity at 300 uM in presence of by UV-vis spectrometry
[10] = Permeability of the compound across blood brain barrier; assay type: ADME; conditions: read-out: BBB
[11] = biological target: Amyloid-beta precursor protein (Homo sapiens) (UniProt P05067); assay: Inhibition of amyloid beta (1 to 42) (unknown origin) self induced aggregation at 1.521 uM incubated for 72 hrs by ThT fluorescence based assay
Chain of Amyloid-beta precursor protein (Homo sapiens) (P05067 whole entry): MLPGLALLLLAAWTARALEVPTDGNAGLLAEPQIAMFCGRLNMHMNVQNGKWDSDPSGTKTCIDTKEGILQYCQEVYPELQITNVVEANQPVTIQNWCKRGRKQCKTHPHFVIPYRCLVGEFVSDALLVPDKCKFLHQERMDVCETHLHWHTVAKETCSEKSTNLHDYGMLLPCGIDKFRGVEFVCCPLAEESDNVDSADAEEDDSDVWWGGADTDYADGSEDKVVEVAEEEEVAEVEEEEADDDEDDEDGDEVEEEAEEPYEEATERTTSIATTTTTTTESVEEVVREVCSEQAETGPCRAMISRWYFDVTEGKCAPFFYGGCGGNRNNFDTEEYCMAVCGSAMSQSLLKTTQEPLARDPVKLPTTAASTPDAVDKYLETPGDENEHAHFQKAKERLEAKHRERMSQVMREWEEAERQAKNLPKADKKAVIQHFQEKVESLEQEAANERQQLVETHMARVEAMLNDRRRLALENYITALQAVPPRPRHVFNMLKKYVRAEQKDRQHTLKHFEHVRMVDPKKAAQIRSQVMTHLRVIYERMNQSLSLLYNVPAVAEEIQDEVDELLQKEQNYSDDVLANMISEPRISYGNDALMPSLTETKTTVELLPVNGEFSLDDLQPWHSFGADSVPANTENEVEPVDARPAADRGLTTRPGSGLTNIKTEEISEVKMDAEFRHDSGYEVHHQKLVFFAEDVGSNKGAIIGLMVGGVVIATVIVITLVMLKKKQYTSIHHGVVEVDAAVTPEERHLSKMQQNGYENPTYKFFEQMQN

[12] = Toxicity in Drosophila melanogaster Oregon R-positive assessed as reduction in eclosed flies at 20 uM measured for 15 days relative to control; set-up: scale not given: the % may be the effect or the level left; conditions: 360 h, time 15 day
[13] = Toxicity in Drosophila melanogaster Oregon R-positive assessed as reduction in eclosed flies at 10 uM measured for 15 days relative to control; set-up: scale not given: the % may be the effect or the level left; conditions: 360 h, time 15 day
[14] = Acute toxicity in Swiss albino mouse assessed as body weight gain at 175 mg/kg, po administered for 14 days; assay type: organism-based; conditions: in vivo, 336 h, time 14 day
[15] = test system: Drosophila melanogaster; assay: Anti-alzheimer activity in ey-GAL4 driven UAS-amyloid beta (1 to 42) induced Drosophila melanogaster Oregon R-positive assessed as mild eye phenotype at 10 to 20 uM by Stereo zoom microscopic imaging analysis relative to control; assay type: functional; conditions: dose 10-20 µM
[16] = test system: Drosophila melanogaster; assay: Anti-alzheimer activity in ey-GAL4 driven UAS-amyloid beta (1 to 42) induced Drosophila melanogaster Oregon R-positive assessed as severe eye phenotype at 10 to 20 uM by Stereo zoom microscopic imaging analysis relative to control; assay type: functional; conditions: dose 10-20 µM
[17] = test system: Drosophila melanogaster; assay: Anti-alzheimer activity in ey-GAL4 driven UAS-amyloid beta (1 to 42) induced Drosophila melanogaster Oregon R-positive assessed as mild eye phenotype at 10 uM by Stereo zoom microscopic imaging analysis relative to control; assay type: functional
[18] = test system: Drosophila melanogaster; assay: Anti-alzheimer activity in ey-GAL4 driven UAS-amyloid beta (1 to 42) induced Drosophila melanogaster Oregon R-positive assessed as severe eye phenotype at 10 uM by Stereo zoom microscopic imaging analysis relative to control; assay type: functional
[19] = test system: Drosophila melanogaster; assay: Anti-alzheimer activity in ey-GAL4 driven UAS-amyloid beta (1 to 42) induced Drosophila melanogaster Oregon R-positive assessed as mild eye phenotype at 40 uM by Stereo zoom microscopic imaging analysis relative to control; assay type: functional
[20] = test system: Drosophila melanogaster; assay: Anti-alzheimer activity in ey-GAL4 driven UAS-amyloid beta (1 to 42) induced Drosophila melanogaster Oregon R-positive assessed as rescued eye phenotype at 40 uM by Stereo zoom microscopic imaging analysis relative to control; assay type: functional
[21] = test system: Drosophila melanogaster; assay: Anti-alzheimer activity in ey-GAL4 driven UAS-amyloid beta (1 to 42) induced Drosophila melanogaster Oregon R-positive assessed as severe eye phenotype at 100 uM by Stereo zoom microscopic imaging analysis relative to control; assay type: functional
[22] = test system: Drosophila melanogaster; assay: Inhibition of oxidative stress in y-GAL4 driven UAS-amyloid beta (1 to 42) induced Drosophila melanogaster Oregon R-positive assessed as reduction in ROS level at 10 to 20 uM incubated for 30 mins by H2DCFDA staining based analysis; assay type: functional, organism-based; conditions: dose 10-20 µM
[23] = Acute toxicity in Swiss albino mouse assessed as abnormal behavior at 175 mg/kg, po administered for 14 days; assay type: organism-based; conditions: in vivo, 336 h, time 14 day
[24] = Acute toxicity in Swiss albino mouse assessed as convulsion at 175 mg/kg, po administered for 14 days; assay type: organism-based; conditions: in vivo, 336 h, time 14 day
[25] = Acute toxicity in Swiss albino mouse assessed as tremor at 175 mg/kg, po administered for 14 days; assay type: organism-based; conditions: in vivo, 336 h, time 14 day
[26] = test system: Mus musculus; assay: (§1) Antialzheimer activity in scopolamine-induced Swiss albino mouse model assessed as decrease in escape latency at 0.3 to 0.5 mg/kg, po preincubated with compound for 30 mins followed by scopolamine induction and measured after 5 days by Morris water maze test; assay type: functional, organism-based; conditions: dose 0.3-0.5 mg/kg, time 7230.0 min
[27] = test system: Mus musculus; assay: as §1, with “improvement” for “decrease”, “memory retention by measuring time spent in platform quadrant” for “escape latency”; assay type: functional, organism-based; conditions: dose 0.3-0.5 mg/kg, time 7230.0 min
[28] = test system: Mus musculus; assay: Antialzheimer activity in scopolamine-induced Swiss albino mouse model assessed as reduction in AChE level at 0.3 to 0.5 mg/kg, po preincubated with compound for 30 mins followed by scopolamine induction and measured after 30 mins; assay type: functional, organism-based; conditions: dose 0.3-0.5 mg/kg, time 1.0 hrs
[29] = test system: Mus musculus; assay: Antioxidant activity against scopolamine-induced Swiss albino mouse model assessed as increase in MDA level at 0.3 to 0.5 mg/kg, po by absorbance based analysis; assay type: functional, organism-based; conditions: dose 0.3-0.5 mg/kg
[30] = test system: Mus musculus; assay: Neuroprotective activity against scopolamine-induced Swiss albino mouse model assessed as increase in CREB1 mRNA level at 0.3 to 0.5 mg/kg, po measured after 6 days by RT-PCR analysis; assay type: functional, organism-based; conditions: dose 0.3-0.5 mg/kg, time 6.0 day
[31] = test system: Mus musculus; assay: Neuroprotective activity against scopolamine-induced Swiss albino mouse model assessed as increase in C-FOS mRNA level at 0.3 to 0.5 mg/kg, po measured after 6 days by RT-PCR analysis; assay type: functional, organism-based; conditions: dose 0.3-0.5 mg/kg, time 6.0 day
[32] = test system: Mus musculus; assay: Neuroprotective activity against scopolamine-induced Swiss albino mouse model assessed as effect on GAP43 mRNA level at 0.3 to 0.5 mg/kg, po measured after 6 days by RT-PCR analysis; assay type: functional, organism-based; conditions: dose 0.3-0.5 mg/kg, time 6.0 day
[33] = test system: Mus musculus; assay: Neuroprotective activity against scopolamine-induced Swiss albino mouse model assessed as effect on PSD95 mRNA level at 0.3 to 0.5 mg/kg, po measured after 6 days by RT-PCR analysis; assay type: functional, organism-based; conditions: dose 0.3-0.5 mg/kg, time 6.0 day
[34] = test system: Mus musculus; assay: Neuroprotective activity against scopolamine-induced Swiss albino mouse model assessed as upregulation of MMP9 mRNA level at 0.3 to 0.5 mg/kg, po measured after 6 days by RT-PCR analysis; assay type: functional, organism-based; conditions: dose 0.3-0.5 mg/kg, time 6.0 day

T1 sequence (P22303 whole entry): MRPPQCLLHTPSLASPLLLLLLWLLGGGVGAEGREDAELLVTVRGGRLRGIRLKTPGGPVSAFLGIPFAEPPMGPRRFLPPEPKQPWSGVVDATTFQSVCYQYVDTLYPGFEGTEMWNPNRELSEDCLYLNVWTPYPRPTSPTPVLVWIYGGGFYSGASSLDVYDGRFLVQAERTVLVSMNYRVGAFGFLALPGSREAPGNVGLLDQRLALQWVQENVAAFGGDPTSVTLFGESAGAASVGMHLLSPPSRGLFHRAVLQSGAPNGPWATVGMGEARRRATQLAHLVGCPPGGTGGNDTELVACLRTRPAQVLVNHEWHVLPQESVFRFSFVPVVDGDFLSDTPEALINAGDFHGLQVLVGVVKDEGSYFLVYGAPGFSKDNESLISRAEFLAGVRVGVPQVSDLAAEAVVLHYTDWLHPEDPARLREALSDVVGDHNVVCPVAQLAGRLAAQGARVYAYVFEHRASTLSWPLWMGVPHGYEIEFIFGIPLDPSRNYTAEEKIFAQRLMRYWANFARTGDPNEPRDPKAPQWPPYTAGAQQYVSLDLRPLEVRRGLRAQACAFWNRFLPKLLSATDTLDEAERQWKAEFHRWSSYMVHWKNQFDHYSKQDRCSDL

Compound `C[C@@H](c1cccc(OC(=O)NCCc2c[nH]c3ccc(Cl)cc23)c1)N(C)C` has a Kb [1] of 0.196 nM, a Kb [2] of 0.13 nM and a K [3] of 0.035 min⁻¹. The Activity [4] was 3.56%, the Activity [5] was 38.9% and the Activity [6] was “Non-toxic”. For the same compound, the viability at 10 µM [7] was 55.3%, the viability at 5 µM [8] was 81.1% and the Activity [9] was “inactive”. It also gave a Papp [10] of 13 ×10⁻⁶ cm/s, an inhibition [11] of 100% and an Activity [12] of 103%. For the same compound, the Activity [13] was 108%, the Activity [14] was “Non-toxic” and the Activity [15] was 36%. For the same compound, the Activity [16] was 20%, the Activity [17] was 36% and the Activity [18] was 20%. For the same compound, the Activity [19] was 43%, the Activity [20] was 40% and the Activity [21] was 26%. The Activity [22] was “Active”, the Activity [23] was “Non-toxic” and the Activity [24] was “Non-toxic”. For the same compound, the Activity [25] was “Non-toxic”, the Activity [26] was “Active” and the Activity [27] was “Active”. The Activity [28] was “Active”, the Activity [29] was “Active” and the Activity [30] was “Active”. For the same compound, the Activity [31] was “Active”, the Activity [32] was “Active” and the Activity [33] was “Active”. The Activity [34] was “Active”.

— ChEMBL document CHEMBL6074689 (Eur J Med Chem, 2025)
